In ChEMBL document CHEMBL4043237, “Heliotropiumides A and B, new phenolamides with N-carbamoyl putrescine moiety from Heliotropium foertherianum collected in Hawaii and their biological activities” (Bioorg Med Chem Lett, 2017):
Active and inactive are the calls of the source. The calls are words filed in the database; no cut-off is given here.

Tests used:
[1] = biological target: Neuronal acetylcholine receptor; alpha4/beta2 (Rattus norvegicus) (UniProt P09483+P12390); assay: Displacement of [3H]epibatidine from alpha4beta2* nAChR in Sprague-Dawley rat forebrain membranes; details: Membrane
Escherichia coli = assay: Antibacterial activity against Escherichia coli; format: functional
Penicillium chrysogenum = assay: Antifungal activity against Penicillium chrysogenum; format: functional
[2] = Inhibition of TNFalpha-induced NFkappaB activation in HEK293 cells after 6 hrs by luciferase reporter gene assay; format: cell-based; details: Homo sapiens, HEK293, 6 h
Fusarium graminearum = assay: Antifungal activity against Fusarium graminearum; format: functional
Staphylococcus aureus = assay: Antibacterial activity against Staphylococcus aureus; format: functional
Tetronarce californica = assay: Displacement of [3H]epibatidine from (alpha1)2beta1gammadelta nAChR in Torpedo californica electroplax membranes
Pseudomonas aeruginosa = assay: Antibacterial activity against Pseudomonas aeruginosa; format: functional
Aspergillus niger = assay: Antifungal activity against Aspergillus niger; format: functional
Paecilomyces lilacinus = assay: Antifungal activity against Paecilomyces lilacinus; format: functional; details: Purpureocillium lilacinum
A2780 = assay: Cytotoxicity against human A2780 cells assessed as reduction in cell viability at 20 ug/ml after 72 hrs by CyQuant dye based assay; format: functional
Homo sapiens = species: Homo sapiens; assay: Inhibition of TNFalpha-induced NFkappaB activation in HEK293 cells at 40 uM after 6 hrs by luciferase reporter gene assay relative to control; format: cell-based
Sus scrofa = species: Sus scrofa; assay: Displacement of [3H]MLA from alpha7* nAChR in pig adrenal membranes; format: cell membranes
[3] = biological target: Neuronal acetylcholine receptor; alpha3/beta4 (Rattus norvegicus) (UniProt P04757+P12392); assay: Displacement of [3H]epibatidine from alpha3beta4* nAChR in Sprague-Dawley rat forebrain membranes; details: Membrane
Bacillus subtilis = assay: Antibacterial activity against Bacillus subtilis; format: functional

| SMILES | inhibition [1] | Activity (Escherichia coli) | Activity (Penicillium chrysogenum) | IC50 [2] [µM] | Activity (Fusarium graminearum) | Activity (Staphylococcus aureus) | inhibition (Tetronarce californica) | Activity (Pseudomonas aeruginosa) | Activity (Aspergillus niger) | Activity (Paecilomyces lilacinus) | Activity (A2780) | inhibition (Homo sapiens) | inhibition (Sus scrofa) | inhibition [3] | Activity (Bacillus subtilis) |
| --- | --- | --- | --- | --- | --- | --- | --- | --- | --- | --- | --- | --- | --- | --- | --- |
| COc1cc(/C=C/C(=O)NCCCCNC(N)=O)ccc1O | inactive | inactive | inactive | 36 | inactive | inactive | inactive | inactive | inactive | inactive | inactive | > 60% | inactive | inactive | inactive |
| COc1cc([C@H]2Oc3c(OC)cc(/C=C/C(=O)NCCCCNC(N)=O)cc3[C@@H]2CO)ccc1O | inactive | inactive | inactive | – | inactive | inactive | inactive | inactive | inactive | inactive | inactive | inactive | inactive | inactive | inactive |
